{"source": "ChEMBL document CHEMBL1201862", "about": "“PubChem BioAssay data set” (2004)", "key": {"[1]": {"target": "T1, Leucine aminopeptidase (Plasmodium falciparum 3D7, UniProt Q8IL11)", "T1 sequence (Q8IL11 whole entry)": "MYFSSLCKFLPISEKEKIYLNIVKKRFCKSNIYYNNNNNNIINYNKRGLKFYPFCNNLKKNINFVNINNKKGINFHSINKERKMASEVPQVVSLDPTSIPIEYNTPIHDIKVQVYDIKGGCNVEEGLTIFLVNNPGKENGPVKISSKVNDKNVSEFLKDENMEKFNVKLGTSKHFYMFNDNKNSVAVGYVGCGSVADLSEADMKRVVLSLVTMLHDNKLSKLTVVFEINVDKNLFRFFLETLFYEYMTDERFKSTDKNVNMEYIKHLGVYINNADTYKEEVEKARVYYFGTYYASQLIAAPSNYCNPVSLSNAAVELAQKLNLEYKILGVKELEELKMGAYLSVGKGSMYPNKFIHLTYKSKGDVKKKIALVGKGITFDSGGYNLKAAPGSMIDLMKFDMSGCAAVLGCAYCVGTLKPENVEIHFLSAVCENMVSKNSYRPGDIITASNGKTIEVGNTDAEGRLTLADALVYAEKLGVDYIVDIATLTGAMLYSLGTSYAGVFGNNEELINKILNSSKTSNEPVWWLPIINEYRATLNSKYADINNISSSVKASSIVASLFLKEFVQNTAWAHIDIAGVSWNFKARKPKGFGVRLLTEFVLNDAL", "assay": "P. falciparum M17LAP inhibitors, primary screen, biochemical, fluorogenic H-Leu-NHMec substrate, 1536-well (AID 1619)", "format": "functional"}, "[2]": {"target": "Intestinal-type alkaline phosphatase (Homo sapiens, UniProt P09923)", "sequence (P09923 whole entry)": "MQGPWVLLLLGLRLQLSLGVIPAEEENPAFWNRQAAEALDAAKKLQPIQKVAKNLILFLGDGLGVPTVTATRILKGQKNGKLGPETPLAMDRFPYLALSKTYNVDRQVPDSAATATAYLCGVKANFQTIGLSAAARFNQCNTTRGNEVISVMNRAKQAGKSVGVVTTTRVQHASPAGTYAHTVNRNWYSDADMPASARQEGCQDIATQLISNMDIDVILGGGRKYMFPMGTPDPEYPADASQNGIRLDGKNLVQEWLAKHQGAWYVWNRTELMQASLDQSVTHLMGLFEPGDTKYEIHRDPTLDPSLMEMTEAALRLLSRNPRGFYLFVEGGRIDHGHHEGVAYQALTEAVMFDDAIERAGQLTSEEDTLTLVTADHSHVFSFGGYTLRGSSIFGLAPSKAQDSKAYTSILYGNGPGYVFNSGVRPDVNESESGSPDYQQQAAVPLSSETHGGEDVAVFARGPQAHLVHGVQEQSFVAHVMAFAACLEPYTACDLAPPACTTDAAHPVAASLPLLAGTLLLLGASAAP", "assay": "activation of human intestinal alkaline phosphatase – biochemical, dose response (AID 488873)", "format": "functional"}, "[3]": {"target": "T2, Alkaline phosphatase, tissue-nonspecific isozyme (Homo sapiens, UniProt P05186)", "T2 sequence (P05186 whole entry)": "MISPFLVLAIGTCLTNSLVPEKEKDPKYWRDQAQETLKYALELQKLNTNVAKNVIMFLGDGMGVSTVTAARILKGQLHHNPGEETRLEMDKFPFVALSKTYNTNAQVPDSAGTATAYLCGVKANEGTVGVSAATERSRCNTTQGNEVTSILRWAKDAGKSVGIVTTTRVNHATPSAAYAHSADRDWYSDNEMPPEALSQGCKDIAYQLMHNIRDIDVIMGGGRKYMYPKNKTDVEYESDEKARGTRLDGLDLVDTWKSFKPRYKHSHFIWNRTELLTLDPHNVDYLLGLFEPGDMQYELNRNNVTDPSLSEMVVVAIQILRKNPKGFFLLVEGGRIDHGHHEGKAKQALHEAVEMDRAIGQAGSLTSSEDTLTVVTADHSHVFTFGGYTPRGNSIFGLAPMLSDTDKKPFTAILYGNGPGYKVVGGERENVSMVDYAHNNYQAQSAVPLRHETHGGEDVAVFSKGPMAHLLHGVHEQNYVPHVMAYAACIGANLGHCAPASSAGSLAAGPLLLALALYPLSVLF", "assay": "TNAP enzyme activators, dose response, selectivity assay for mouse IAP activator project, biochemical, TNAP isozyme, mouse IAP uHTS hits (AID 488880)", "format": "functional"}, "[4]": {"target": "T3, RNA-binding protein pos-1 (Caenorhabditis elegans, UniProt G5EF15)", "T3 sequence (G5EF15 whole entry)": "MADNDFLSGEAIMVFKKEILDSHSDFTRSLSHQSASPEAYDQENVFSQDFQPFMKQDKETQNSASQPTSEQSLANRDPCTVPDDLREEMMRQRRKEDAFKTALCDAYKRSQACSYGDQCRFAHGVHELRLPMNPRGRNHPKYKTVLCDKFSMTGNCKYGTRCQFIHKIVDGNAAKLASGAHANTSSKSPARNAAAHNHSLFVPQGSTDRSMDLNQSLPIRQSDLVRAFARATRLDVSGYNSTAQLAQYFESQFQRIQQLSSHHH", "assay": "inhibitors of POS-1/mex-3 RNA binding, dose response, biochemical, fluorescence polarization (AID 1964);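 note: purified POS-1 fused to maltose binding protein made in E. coli; potency of compounds blocking POS-1 binding to fluorescent RNA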"}, "[5]": {"target": "T4, Zinc finger protein mex-5 (Caenorhabditis elegans, UniProt Q9XUB2)", "T4 sequence (Q9XUB2 whole entry)": "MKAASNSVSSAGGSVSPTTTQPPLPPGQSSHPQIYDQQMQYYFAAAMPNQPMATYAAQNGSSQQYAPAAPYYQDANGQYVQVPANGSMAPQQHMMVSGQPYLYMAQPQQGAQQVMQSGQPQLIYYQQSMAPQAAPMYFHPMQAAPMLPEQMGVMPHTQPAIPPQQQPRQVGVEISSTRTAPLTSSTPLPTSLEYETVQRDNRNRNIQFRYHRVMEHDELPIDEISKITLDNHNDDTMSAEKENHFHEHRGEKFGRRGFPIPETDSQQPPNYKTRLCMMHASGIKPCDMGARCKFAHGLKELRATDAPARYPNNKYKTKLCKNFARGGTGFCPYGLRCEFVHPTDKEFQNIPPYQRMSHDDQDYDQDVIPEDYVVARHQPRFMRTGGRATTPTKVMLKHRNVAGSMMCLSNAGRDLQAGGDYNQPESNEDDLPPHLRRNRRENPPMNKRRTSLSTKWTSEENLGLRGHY", "assay": "MEX-5/TCR-2 RNA interaction inhibitors, dose response, biochemical, C. elegans, fluorescence polarization (AID 1960)"}, "[6]": {"target": "Intestinal-type alkaline phosphatase (Mus musculus, UniProt P24822)", "sequence (P24822 whole entry)": "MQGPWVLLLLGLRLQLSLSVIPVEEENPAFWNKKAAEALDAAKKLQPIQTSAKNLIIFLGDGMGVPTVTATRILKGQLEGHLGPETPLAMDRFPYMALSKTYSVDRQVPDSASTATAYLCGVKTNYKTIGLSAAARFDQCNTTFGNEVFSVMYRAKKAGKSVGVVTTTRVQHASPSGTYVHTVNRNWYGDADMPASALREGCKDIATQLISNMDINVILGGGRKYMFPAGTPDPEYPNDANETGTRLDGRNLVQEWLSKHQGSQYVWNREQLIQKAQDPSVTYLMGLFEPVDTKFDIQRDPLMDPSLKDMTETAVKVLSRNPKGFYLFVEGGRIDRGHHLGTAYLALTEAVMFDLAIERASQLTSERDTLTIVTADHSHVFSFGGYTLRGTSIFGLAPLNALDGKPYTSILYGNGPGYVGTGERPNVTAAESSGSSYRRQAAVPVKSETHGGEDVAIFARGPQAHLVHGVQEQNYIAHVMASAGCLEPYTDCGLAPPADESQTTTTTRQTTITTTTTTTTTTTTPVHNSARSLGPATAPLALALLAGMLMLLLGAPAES", "assay": "mouse intestinal alkaline phosphatase activators, dose response, biochemical, luminescence, uHTS hits (AID 488783)", "format": "functional"}, "[7]": {"target": "Lysine-specific demethylase 4C (Homo sapiens, UniProt Q9H3R0)", "assay": "GASC-1 (JMJD2C) histone demethylase inhibitors, dose response, biochemical, DELFIA europium, cherry-picked samples (AID 488835)", "format": "functional"}, "[8]": {"target": "NS3 (Hepatitis C virus, UniProt A3EZJ3)", "assay": "PubChem AID 2173", "design": "species or system Hepacivirus hominis"}, "[9]": {"target": "T5, Voltage-gated N-type calcium channel alpha-1B subunit/Amyloid beta A4 precursor protein-binding family A member 1 (Homo sapiens, UniProt Q00975+Q02410)", "T5 sequence (Q00975 whole entry)": "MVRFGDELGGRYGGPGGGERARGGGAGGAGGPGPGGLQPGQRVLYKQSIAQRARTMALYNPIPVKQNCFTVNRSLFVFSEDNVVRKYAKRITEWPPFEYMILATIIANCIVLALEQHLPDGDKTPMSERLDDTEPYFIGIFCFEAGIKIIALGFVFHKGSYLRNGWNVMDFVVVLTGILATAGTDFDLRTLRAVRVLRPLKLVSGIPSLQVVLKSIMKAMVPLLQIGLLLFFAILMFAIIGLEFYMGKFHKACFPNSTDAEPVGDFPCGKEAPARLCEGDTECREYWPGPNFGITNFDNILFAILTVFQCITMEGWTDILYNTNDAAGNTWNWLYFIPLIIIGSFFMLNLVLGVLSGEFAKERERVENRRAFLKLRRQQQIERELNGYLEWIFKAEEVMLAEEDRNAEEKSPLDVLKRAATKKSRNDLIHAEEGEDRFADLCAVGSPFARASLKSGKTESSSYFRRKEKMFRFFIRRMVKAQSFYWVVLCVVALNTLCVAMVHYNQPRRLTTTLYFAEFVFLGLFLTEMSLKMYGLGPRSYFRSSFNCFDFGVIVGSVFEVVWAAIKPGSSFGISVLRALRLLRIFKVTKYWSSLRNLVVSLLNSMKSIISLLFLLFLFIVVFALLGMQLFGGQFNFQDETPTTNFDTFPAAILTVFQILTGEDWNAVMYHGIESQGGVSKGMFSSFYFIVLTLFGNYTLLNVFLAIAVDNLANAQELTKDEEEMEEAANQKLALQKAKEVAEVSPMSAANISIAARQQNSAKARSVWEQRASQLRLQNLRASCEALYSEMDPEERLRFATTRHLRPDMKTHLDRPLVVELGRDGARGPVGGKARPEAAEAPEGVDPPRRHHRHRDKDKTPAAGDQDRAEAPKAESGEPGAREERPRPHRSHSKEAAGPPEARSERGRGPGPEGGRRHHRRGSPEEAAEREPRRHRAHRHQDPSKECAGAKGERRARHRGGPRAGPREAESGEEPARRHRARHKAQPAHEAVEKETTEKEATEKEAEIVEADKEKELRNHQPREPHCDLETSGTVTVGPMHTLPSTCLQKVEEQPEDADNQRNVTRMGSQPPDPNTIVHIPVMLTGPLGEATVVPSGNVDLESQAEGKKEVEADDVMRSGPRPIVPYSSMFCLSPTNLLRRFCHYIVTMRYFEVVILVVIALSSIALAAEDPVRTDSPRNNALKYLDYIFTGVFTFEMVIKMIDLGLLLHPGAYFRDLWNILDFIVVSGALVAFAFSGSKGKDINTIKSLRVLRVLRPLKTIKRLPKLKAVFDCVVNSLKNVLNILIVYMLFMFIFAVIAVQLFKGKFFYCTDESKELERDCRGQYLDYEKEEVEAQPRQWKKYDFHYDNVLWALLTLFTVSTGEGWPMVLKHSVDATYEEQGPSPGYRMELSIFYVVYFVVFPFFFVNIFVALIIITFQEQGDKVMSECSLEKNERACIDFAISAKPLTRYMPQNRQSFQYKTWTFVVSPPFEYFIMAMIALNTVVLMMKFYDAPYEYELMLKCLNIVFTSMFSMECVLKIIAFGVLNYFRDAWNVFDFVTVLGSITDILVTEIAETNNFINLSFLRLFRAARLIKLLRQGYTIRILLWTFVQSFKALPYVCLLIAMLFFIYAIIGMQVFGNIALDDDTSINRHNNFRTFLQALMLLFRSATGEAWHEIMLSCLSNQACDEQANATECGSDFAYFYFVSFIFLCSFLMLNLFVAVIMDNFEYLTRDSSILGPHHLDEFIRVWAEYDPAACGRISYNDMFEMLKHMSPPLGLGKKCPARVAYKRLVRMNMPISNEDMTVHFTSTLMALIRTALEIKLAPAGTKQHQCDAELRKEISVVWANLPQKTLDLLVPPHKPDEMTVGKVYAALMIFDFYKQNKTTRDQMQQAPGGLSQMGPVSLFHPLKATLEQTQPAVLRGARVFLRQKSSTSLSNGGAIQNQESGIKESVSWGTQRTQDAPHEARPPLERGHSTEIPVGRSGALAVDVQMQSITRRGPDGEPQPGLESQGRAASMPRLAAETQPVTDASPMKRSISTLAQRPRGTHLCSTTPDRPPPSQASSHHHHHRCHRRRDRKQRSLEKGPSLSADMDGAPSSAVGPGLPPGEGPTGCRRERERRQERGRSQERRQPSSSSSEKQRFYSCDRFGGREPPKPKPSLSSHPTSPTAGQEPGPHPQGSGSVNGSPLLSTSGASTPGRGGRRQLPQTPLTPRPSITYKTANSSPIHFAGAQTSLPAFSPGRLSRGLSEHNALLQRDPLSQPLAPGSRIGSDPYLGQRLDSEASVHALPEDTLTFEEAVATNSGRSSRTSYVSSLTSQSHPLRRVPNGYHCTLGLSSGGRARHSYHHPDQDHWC", "T5 sequence (Q02410 whole entry)": "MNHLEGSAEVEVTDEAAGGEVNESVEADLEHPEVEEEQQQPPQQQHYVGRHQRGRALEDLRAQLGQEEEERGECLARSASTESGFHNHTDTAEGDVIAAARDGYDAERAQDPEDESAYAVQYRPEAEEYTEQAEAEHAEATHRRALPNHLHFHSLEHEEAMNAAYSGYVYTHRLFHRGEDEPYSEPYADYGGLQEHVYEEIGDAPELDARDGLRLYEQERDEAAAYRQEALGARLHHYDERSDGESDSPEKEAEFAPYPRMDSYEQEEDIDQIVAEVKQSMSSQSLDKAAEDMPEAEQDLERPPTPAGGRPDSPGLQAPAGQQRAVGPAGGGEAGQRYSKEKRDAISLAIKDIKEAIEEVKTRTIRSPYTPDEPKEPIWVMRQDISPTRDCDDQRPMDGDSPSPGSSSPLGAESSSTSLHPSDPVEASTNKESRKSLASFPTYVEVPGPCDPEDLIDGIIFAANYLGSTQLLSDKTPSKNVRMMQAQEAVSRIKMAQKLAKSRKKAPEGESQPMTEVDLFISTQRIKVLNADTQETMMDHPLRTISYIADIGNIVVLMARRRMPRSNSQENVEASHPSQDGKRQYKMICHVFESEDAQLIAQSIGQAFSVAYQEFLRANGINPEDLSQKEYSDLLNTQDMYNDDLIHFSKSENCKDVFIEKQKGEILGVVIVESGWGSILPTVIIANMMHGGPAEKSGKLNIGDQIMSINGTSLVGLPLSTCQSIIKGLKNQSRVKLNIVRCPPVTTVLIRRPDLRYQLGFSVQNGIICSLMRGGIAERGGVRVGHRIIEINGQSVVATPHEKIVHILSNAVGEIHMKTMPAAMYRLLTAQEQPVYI", "format": "protein assay"}, "[10]": {"target": "T6, Lysine-specific demethylase 4A (Homo sapiens, UniProt O75164)", "T6 sequence (O75164 whole entry)": "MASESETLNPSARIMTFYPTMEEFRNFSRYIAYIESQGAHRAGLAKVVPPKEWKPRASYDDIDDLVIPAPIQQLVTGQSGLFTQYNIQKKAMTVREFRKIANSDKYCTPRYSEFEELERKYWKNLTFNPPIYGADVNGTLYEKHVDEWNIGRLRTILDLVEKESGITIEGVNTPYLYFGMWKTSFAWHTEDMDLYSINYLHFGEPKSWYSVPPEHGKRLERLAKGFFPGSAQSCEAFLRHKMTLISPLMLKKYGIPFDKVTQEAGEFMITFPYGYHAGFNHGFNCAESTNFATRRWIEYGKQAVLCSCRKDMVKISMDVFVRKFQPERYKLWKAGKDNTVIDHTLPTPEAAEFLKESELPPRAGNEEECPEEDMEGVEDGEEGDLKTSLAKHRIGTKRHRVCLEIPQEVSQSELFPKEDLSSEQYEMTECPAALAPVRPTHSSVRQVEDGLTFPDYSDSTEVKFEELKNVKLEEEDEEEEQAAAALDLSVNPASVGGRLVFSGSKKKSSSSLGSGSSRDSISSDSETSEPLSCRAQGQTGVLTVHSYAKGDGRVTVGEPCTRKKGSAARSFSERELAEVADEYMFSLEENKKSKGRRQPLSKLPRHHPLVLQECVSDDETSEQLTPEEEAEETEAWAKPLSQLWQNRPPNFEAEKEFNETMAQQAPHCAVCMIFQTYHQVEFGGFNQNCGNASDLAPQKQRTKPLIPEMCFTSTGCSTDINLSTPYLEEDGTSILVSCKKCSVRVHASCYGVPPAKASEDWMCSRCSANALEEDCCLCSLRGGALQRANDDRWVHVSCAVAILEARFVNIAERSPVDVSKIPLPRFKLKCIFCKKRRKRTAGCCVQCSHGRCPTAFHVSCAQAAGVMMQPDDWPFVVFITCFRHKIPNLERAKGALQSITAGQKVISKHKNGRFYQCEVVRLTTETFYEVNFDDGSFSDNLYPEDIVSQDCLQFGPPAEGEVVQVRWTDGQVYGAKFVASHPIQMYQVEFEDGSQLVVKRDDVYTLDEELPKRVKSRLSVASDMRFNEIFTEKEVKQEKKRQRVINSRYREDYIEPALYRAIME", "assay": "JMJD2A histone demethylase inhibitors, dose response, selectivity assay for GASC-1 inhibitor project, biochemical, DELFIA europium, cherry-picked samples (AID 488840)"}, "[11]": {"target": "T5, Voltage-gated N-type calcium channel alpha-1B subunit/Amyloid beta A4 precursor protein-binding family A member 1", "assay": "disruptors of Mint-PDZ/N-type channel peptide interaction – biochemical, HTRF, set 2, SAR follow-up (AID 434980)", "format": "functional"}, "[12]": {"target": "Troponin, cardiac muscle (Homo sapiens, UniProt P19429+P45379+P63316)", "assay": "inhibitors of cardiac thin filament calcium sensitivity, dose response, biochemical, fluorescence, cardiac regulated thin filaments, triplicate IC50 (AID 504742)", "format": "protein-complex assay"}, "[13]": {"target": "T5, Voltage-gated N-type calcium channel alpha-1B subunit/Amyloid beta A4 precursor protein-binding family A member 1", "format": "protein assay", "remark": "listed apart in the source"}, "[14]": {"target": "T7, Glutathione-S-transferase (Schistosoma japonicum, UniProt Q26513)", "T7 sequence (Q26513 whole entry)": "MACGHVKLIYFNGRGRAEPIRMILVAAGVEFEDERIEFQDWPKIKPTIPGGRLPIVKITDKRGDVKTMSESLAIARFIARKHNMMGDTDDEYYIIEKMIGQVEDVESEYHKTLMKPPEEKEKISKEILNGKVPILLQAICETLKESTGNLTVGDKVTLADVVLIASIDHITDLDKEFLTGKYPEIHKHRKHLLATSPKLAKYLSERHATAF", "assay": "biotin-GST/anti-GST TR-FRET signal inhibitors, dose response, artefact control for Vif-APOBEC3G degradation inhibitor project, biochemical (AID 1117362)", "format": "functional"}, "[15]": {"target": "T5, Voltage-gated N-type calcium channel alpha-1B subunit/Amyloid beta A4 precursor protein-binding family A member 1", "assay": "disruptors of Mint-PDZ/N-type channel peptide interaction – biochemical, HTRF, SAR follow-up (AID 2489)", "format": "functional"}, "[16]": {"target": "Induced myeloid leukemia cell differentiation protein Mcl-1 (Homo sapiens, UniProt Q07820)", "sequence (Q07820 whole entry)": "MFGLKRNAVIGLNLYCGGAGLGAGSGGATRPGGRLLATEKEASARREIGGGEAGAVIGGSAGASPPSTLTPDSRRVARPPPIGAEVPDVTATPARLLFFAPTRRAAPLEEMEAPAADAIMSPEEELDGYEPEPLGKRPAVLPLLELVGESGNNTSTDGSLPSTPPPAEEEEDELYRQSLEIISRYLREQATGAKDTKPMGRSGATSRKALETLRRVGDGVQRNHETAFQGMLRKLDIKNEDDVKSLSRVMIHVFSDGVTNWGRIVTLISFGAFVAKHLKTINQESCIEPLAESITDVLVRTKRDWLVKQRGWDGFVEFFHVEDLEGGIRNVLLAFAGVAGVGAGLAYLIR", "format": "functional"}, "[17]": {"target": "T8, Dual specificity protein phosphatase 3 (Homo sapiens, UniProt P51452)", "T8 sequence (P51452 whole entry)": "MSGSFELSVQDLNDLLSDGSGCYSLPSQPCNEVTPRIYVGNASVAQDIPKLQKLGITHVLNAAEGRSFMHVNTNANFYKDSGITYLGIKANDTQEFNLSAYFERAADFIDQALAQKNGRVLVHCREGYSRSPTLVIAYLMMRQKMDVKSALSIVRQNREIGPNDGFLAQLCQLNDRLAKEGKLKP", "assay": "VHR1 phosphatase inhibitors, biochemical (AID 1878)"}, "[18]": {"target": "DNA (cytosine-5)-methyltransferase 1 (Homo sapiens, UniProt P26358)", "assay": "DNMT1 methyltransferase inhibitors, confirmation, biochemical, fluorescent molecular beacon (AID 602386)", "format": "functional"}, "[19]": {"target": "T8, Dual specificity protein phosphatase 3", "assay": "VHR1 phosphatase inhibitors, primary screen, biochemical, absorbance, uHTS (AID 1654)"}, "[20]": {"target": "T9, Dual specificity protein phosphatase 6 (Rattus norvegicus, UniProt Q64346)", "T9 sequence (Q64346 whole entry)": "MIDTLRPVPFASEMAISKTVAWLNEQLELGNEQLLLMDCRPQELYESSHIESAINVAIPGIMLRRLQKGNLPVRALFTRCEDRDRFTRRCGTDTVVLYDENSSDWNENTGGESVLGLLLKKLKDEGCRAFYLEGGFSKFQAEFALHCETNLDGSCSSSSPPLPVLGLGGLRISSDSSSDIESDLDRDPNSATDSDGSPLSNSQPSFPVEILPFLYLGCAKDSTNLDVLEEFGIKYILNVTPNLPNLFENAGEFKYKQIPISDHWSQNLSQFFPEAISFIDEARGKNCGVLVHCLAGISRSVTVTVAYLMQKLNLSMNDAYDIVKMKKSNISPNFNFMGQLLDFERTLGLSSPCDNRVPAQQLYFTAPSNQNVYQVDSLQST", "assay": "MKP-3 phosphatase inhibitors, primary screen, biochemical, rat enzyme, in vitro (AID 425)"}}, "note": "Active and inactive are the calls of the source.", "data": [{"smiles": "COc1ccc(S(=O)(=O)Nc2ccc(O)c(Sc3nnc[nH]3)c2)cc1", "values": [{"measurement": "IC50", "setting": "[1]", "result": "25 µM (active)"}, {"measurement": "EC50", "setting": "[2]", "result": "79.6 µM (active)"}, {"measurement": "EC50", "setting": "[3]", "result": "62.8 µM (active)"}, {"measurement": "EC50", "setting": "[4]", "result": "10.4 µM (active)"}, {"measurement": "EC50", "setting": "[5]", "result": "8.48 µM (active)"}, {"measurement": "EC50", "setting": "[6]", "result": "63.4 µM (active)"}]}, {"smiles": "Nc1c(C(=O)NC2CC2)sc2nc3c(c(-c4ccco4)c12)CC/C3=C/c1ccco1", "values": [{"measurement": "AC50", "setting": "[7]", "result": "4.71 µM (active)"}, {"measurement": "IC50", "setting": "[8]", "result": "5.48 µM (active)"}, {"measurement": "IC50", "setting": "[9]", "result": "3.99 µM (active)"}, {"measurement": "AC50", "setting": "[10]", "result": "6.07 µM (active)"}, {"measurement": "IC50", "setting": "[11]", "result": "1.04 µM (active)"}, {"measurement": "IC50", "setting": "[12]", "result": "> 71.5 µM (inactive)"}, {"measurement": "IC50", "setting": "[13]", "result": "13.1 µM (active)"}, {"measurement": "IC50", "setting": "[14]", "result": "54 µM (active)"}, {"measurement": "IC50", "setting": "[15]", "result": "17.2 µM (active)"}]}, {"smiles": "Cc1ccc(NC(=O)CN2C(=O)S/C(=C\\c3cccn3-c3cccc(C(=O)O)c3)C2=O)c(C)c1", "values": [{"measurement": "IC50", "setting": "[16]", "result": "> 54 µM (active)"}, {"measurement": "IC50", "setting": "[17]", "result": "1.89 µM (active)"}, {"measurement": "IC50", "setting": "[18]", "result": "9.17 µM (active)"}, {"measurement": "EC50", "setting": "[4]", "result": "> 300 µM (not active)"}, {"measurement": "EC50", "setting": "[5]", "result": "> 300 µM (not active)"}, {"measurement": "IC50", "setting": "[19]", "result": "3.25 µM (active)"}, {"measurement": "IC50", "setting": "[20]", "result": "7.9 µM (active)"}]}]}
